“And” between values parts separate entries of the source, which are not always exact repeats. Equal values may be shown once.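 How tested: cells in 96-well plates exposed to compound for 48 hours at five concentrations. GI50 is the concentration that inhibits growth by half. TGI denotes the concentration required for complete inhibition of growth.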
How the values were obtained:
Test in all cases: NCI tumour cell line growth inhibition, 48 h
[1] = test system: LOX IMVI melanoma
[2] = test system: LXFL 529 NSCLC
[3] = test system: M19-MEL melanoma
[4] = test system: NCI-H226 lung
[5] = test system: NCI-H522 lung
[6] = test system: RPMI-8226 leukemia
[7] = test system: SNB-19 CNS
[8] = test system: U251 CNS
[9] = test system: UACC-62 melanoma
[10] = test system: PC-3 prostate
[11] = test system: T-47D breast

c1ccc(C[P+]2(c3ccccc3)CCCCC2)cc1
TGI [1]: > 100 µM | TGI [2]: > 100 µM | TGI [3]: > 100 µM | TGI [4]: > 100 µM | TGI [5]: > 100 µM | TGI [6]: > 100 µM | TGI [7]: > 100 µM | TGI [8]: > 100 µM | TGI [9]: > 100 µM

O=C1CCCn2c3ccccc3c3ccnc1c32
TGI [1]: > 100 µM | TGI [3]: > 100 µM | TGI [4]: 56.4 µM | TGI [5]: > 100 µM | TGI [6]: > 100 µM | TGI [7]: > 100 µM | TGI [8]: > 100 µM | TGI [9]: 98 µM

CC12CCC3=C(CSC4=C3CSc3ccccc34)C1=CCCC2=O (configuration not stated)
TGI [1]: > 100 µM | TGI [2]: > 100 µM | TGI [3]: > 100 µM | TGI [4]: > 100 µM | TGI [5]: > 100 µM | TGI [6]: > 100 µM | TGI [7]: > 100 µM | TGI [8]: > 100 µM

Cc1cc(C)c2c(=O)n(CC(O)CN3CCN(c4ncccn4)CC3)sc2n1 (configuration not stated)
TGI [1]: 33.7 µM | TGI [4]: > 100 µM | TGI [5]: 26.6 µM | TGI [10]: 32.8 µM | TGI [6]: 44 µM | TGI [7]: > 100 µM | TGI [11]: 52.9 µM | TGI [8]: 31.7 µM | TGI [9]: 31.6 µM

COc1cc(/C=C/C(=O)OC[C@]23O[C@H]2[C@@H](OC2OC(C)C(O)C(O)C2O)C2C=CO[C@@H](OC4OC(CO)C(O)C(O)C4O)C23)ccc1O (some centres not stated)
TGI [1]: > 100 µM | TGI [4]: > 100 µM | TGI [5]: > 100 µM | TGI [10]: > 100 µM | TGI [6]: > 100 µM | TGI [7]: > 100 µM | TGI [11]: > 100 µM | TGI [8]: > 100 µM | TGI [9]: > 100 µM

C/C(=N\NC(=S)N/N=C(\C)c1ccccn1)c1ccccn1
TGI [1]: > 100 µM | TGI [4]: 3.78 µM | TGI [5]: > 100 µM | TGI [10]: > 100 µM | TGI [6]: > 100 µM | TGI [7]: > 100 µM | TGI [11]: > 100 µM | TGI [8]: > 100 µM | TGI [9]: 15 µM

COc1ccc(/C=N/N=C(N)N)c(C(=O)O)c1OC
TGI [2]: > 100 µM | TGI [5]: > 100 µM | TGI [6]: > 100 µM | TGI [7]: > 100 µM | TGI [8]: > 100 µM | TGI [9]: > 100 µM

COC(=O)c1ccc2c(c1)CCN2C(=O)c1cc2c(cc1Br)OCO2
GI50 [1]: 0.936 µM | TGI [1]: 50 µM and 94.7 µM | TGI [4]: 4.44 µM | GI50 [5]: 0.0801 µM | TGI [5]: 0.4 µM and 0.29 µM | TGI [10]: 5.52 µM and 20.6 µM | GI50 [6]: 1.15 µM | GI50 [7]: 1.31 µM | TGI [7]: 12.8 µM and > 100 µM | GI50 [11]: 0.982 µM | TGI [11]: 50 µM and 51.9 µM | GI50 [8]: 0.512 µM | TGI [8]: 5.12 µM and 20.6 µM | GI50 [9]: 0.995 µM | TGI [9]: 50 µM and > 100 µM

CSCC[C@@H](NC(=O)[C@H](CC(C)C)NC(=O)C(Cc1cnc[nH]1)NC(=O)CNC(=O)[C@@H](NC(=O)[C@H](C)NC(=O)[C@H](Cc1cn(C=O)c2ccccc12)NC(=O)[C@H](CCC(N)=O)NC(=O)[C@@H](N)CC(N)=O)C(C)C)C(N)=O (some centres not stated)
TGI [1]: > 100 µM | TGI [3]: > 100 µM | TGI [4]: > 100 µM | TGI [5]: > 100 µM | TGI [6]: > 100 µM | TGI [7]: > 100 µM | TGI [8]: > 100 µM | TGI [9]: > 100 µM

CCOC(=O)C(C(N)=O)c1nc2cc([N+](=O)[O-])ccc2nc1/C=C(\O)c1ccc(C)cc1 (configuration not stated)
TGI [1]: 57.4 µM | TGI [4]: > 100 µM | TGI [5]: 47.8 µM | TGI [10]: 40.4 µM | TGI [6]: 40.6 µM | TGI [7]: 48.3 µM | TGI [11]: > 100 µM | TGI [8]: 33.5 µM | TGI [9]: > 72.3 µM

CC(CCC(=O)O)(c1cc(Br)c(O)c(Br)c1)c1cc(Br)c(O)c(Br)c1
TGI [1]: > 100 µM | TGI [4]: > 100 µM | TGI [5]: > 100 µM | TGI [10]: > 100 µM | TGI [6]: > 100 µM | TGI [7]: > 100 µM | TGI [11]: > 100 µM | TGI [8]: > 100 µM | TGI [9]: > 100 µM

Clc1ccc2nc3c(c(-c4ccccc4)nn3-c3ccccc3)c(-c3ccccc3)c2c1
TGI [1]: > 100 µM | TGI [4]: > 100 µM | TGI [5]: > 100 µM | TGI [10]: > 100 µM | TGI [6]: > 100 µM | TGI [7]: > 100 µM | TGI [11]: > 100 µM | TGI [8]: > 100 µM | TGI [9]: > 100 µM

CS(=O)(=O)c1ccc(C2=C(c3ccccc3)C(=O)OC2)cc1
TGI [1]: > 100 µM | TGI [4]: > 100 µM | TGI [5]: > 100 µM | TGI [10]: > 100 µM | TGI [6]: > 100 µM | TGI [7]: > 100 µM | TGI [11]: > 100 µM | TGI [8]: > 100 µM | TGI [9]: > 100 µM

CCOC(=O)C(NC(=O)Nc1ccccc1)(Nc1cccc(Cl)c1)C(F)(F)F (configuration not stated)
TGI [1]: > 100 µM | TGI [4]: > 100 µM | TGI [5]: > 100 µM | TGI [10]: > 100 µM | TGI [6]: > 100 µM | TGI [7]: > 100 µM | TGI [11]: > 100 µM | TGI [8]: > 100 µM | TGI [9]: > 100 µM

Cc1cc(CC(O)(C(F)(F)F)C(F)(F)F)cc(CC(O)(C(F)(F)F)C(F)(F)F)n1
TGI [1]: 5.79 µM | TGI [4]: 8.13 µM | TGI [5]: 6.35 µM | TGI [10]: 10.3 µM | TGI [6]: 5.96 µM | TGI [7]: > 100 µM | TGI [11]: 7.3 µM | TGI [8]: 11.9 µM | TGI [9]: 12.5 µM

COC(=O)[C@@]12CC3CN(Cc4c1[nH]c1ccccc41)C2CC3=O
TGI [1]: > 100 µM | TGI [4]: > 100 µM | TGI [5]: > 100 µM | TGI [10]: > 100 µM | TGI [6]: > 100 µM | TGI [7]: > 100 µM | TGI [11]: > 100 µM | TGI [8]: > 100 µM | TGI [9]: > 100 µM

Nc1c2c(nc3ccccc13)-c1ccccc1CCC2
TGI [1]: 25.3 µM | TGI [4]: 28.9 µM | TGI [5]: 32.4 µM | TGI [10]: 36.3 µM | TGI [6]: 33.5 µM | TGI [7]: 55.4 µM | TGI [11]: 37.5 µM | TGI [8]: 28.3 µM | TGI [9]: 22.7 µM

c1ccc2c(c1)N=c1ccccc1=P21c2ccccc2Nc2ccccc21
TGI [1]: 4.96 µM | TGI [4]: 3.65 µM | TGI [5]: 0.913 µM | TGI [10]: 10.1 µM | TGI [6]: 0.616 µM | TGI [7]: 7.26 µM | TGI [11]: 1.63 µM | TGI [8]: 11.3 µM | TGI [9]: > 100 µM
